Source: patent publication US9382197B2, “Substituted hydroxamic acids and uses thereof” (Millennium Pharmaceuticals, Inc., priority 2010, dated 2016)

Target: T1, purified human HDAC6 (Homo sapiens, UniProt Q9UBN7)
T1 construct: purchased BPS Bioscience 5006
T1 sequence (Q9UBN7 1-1215): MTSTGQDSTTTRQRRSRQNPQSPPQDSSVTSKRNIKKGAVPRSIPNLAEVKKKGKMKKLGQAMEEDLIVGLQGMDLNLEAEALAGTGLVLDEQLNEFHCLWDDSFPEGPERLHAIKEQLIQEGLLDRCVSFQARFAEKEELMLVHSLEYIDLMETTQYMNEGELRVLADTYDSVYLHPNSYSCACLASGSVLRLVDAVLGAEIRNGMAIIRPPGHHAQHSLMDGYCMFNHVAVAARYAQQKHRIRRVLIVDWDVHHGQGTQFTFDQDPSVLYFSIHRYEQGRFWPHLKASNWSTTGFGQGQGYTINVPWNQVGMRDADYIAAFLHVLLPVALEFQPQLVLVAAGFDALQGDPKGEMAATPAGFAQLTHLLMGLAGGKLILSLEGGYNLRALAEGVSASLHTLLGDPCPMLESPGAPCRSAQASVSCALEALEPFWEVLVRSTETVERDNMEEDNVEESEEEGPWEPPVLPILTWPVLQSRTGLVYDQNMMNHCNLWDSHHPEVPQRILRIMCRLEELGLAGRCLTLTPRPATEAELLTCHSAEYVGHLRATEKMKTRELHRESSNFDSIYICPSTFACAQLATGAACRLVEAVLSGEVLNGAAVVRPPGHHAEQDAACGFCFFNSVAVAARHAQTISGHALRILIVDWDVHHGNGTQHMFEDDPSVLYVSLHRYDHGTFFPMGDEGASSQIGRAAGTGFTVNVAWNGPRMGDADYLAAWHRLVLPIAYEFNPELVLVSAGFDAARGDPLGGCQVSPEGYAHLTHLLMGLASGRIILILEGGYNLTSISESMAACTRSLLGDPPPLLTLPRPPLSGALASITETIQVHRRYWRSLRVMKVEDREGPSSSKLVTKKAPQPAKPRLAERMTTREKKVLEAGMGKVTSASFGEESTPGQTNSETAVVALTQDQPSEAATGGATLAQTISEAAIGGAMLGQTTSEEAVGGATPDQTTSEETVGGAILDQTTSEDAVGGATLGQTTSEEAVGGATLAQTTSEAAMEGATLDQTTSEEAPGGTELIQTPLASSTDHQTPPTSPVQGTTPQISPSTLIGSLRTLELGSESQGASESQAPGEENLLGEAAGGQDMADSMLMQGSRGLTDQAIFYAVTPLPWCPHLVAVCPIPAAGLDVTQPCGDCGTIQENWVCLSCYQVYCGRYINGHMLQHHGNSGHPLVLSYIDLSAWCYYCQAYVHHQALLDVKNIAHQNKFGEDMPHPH
Assay: HDAC6 Enzyme Assay
Format: biochemical
Outline: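 Purified human HDAC6 incubated 1 h at 30 °C with Ac-Arg-Gly-Lys(Ac)-AMC and compound; trichostatin A stop, trypsin release of AMC, fluorescence Ex 340/Em 460 nm. IC50 from concentration–response relative to DMSO.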

[1] = purified human HDAC6, substrate Ac-Arg-Gly-Lys(Ac)-AMC, 1 hour at 30° C., reported as bins
[2] = bin: greater than 500 nM and less than 1 μM (lower bound in nM, upper bound in μM)

Row | SMILES | IC50 (bin: greater than 1 μM) [nM] | IC50 [1] [nM] | other results
1 | CC(NC(=O)c1ccccc1C(F)(F)F)c1cccc(C(=O)NO)c1 (centres unmarked) [Compound I-57, N-(1-{3-[(hydroxyamino)carbonyl]phenyl}ethyl)-2-(trifluoromethyl)benzamide] | > 1000 | – | –
2 | Cc1ccc2[nH]c(C(=O)NC(c3ccc(C(=O)NO)cc3)C(C)(C)C)cc2c1 (centres unmarked) [Compound I-129, N-(1-{4-[(hydroxyamino)carbonyl]phenyl}-2,2-dimethylpropyl)-5-methyl-1H-indole-2-carboxamide] | – | < 100 | –
3 | CC(C)(C)C(NC(=O)C1CCCCC1)c1ccc(C(=O)NO)cc1 (centres unmarked) [Compound I-265, 4-{1-[(cyclohexylcarbonyl)amino]-2,2-dimethylpropyl}-N-hydroxybenzamide] | > 1000 | – | –
4 | CC(C)(C)C(NC(=O)c1ccc(C(F)(F)F)cc1)c1ccc(C(=O)NO)cc1 (centres unmarked) [Compound I-303, 4-(2,2-dimethyl-1-{[4-(trifluoromethyl)benzoyl]amino}propyl)-N-hydroxybenzamide] | – | – | IC50 [2]: 500 to 1000 nM
5 | CC(C)[C@@H](NC(=O)c1cc2ccccc2s1)c1ccc(C(=O)NO)cc1 [Compound I-214, N-((1R)-1-{4-[(hydroxyamino)carbonyl]phenyl}-2-methylpropyl)-1-benzothiophene-2-carboxamide] | – | < 100 | –
6 | Cn1c(C(=O)NC(c2ccc(C(=O)NO)cc2)C(C)(C)C)cc2oc(-c3ccccc3)cc21 (centres unmarked) [Compound I-392, N-(1-{4-[(hydroxyamino)carbonyl]phenyl}-2,2-dimethylpropyl)-4-methyl-2-phenyl-4H-furo[3,2-b]pyrrole-5-carboxamide] | > 1000 | – | –
7 | Cc1cc(C(=O)NO)ccc1C(C)NC(=O)c1cccn1C (centres unmarked) [Compound I-486, N-(1-{4-[(hydroxyamino)carbonyl]-2-methylphenyl}ethyl)-1-methyl-1H-pyrrole-2-carboxamide] | > 1000 | – | –
8 | CC(C)CC(=O)NC(C)c1ccc(C(=O)NO)cc1 (centres unmarked) [Compound I-111, N-hydroxy-4-{1-[(3-methylbutanoyl)amino]ethyl}benzamide] | > 1000 | – | –
9 | Cn1ccc(C(=O)NC(c2ccc(C(=O)NO)cc2)C(C)(C)C)n1 (centres unmarked) [Compound I-66, N-(1-{4-[(hydroxyamino)carbonyl]phenyl}-2,2-dimethylpropyl)-1-methyl-1H-pyrazole-3-carboxamide] | – | 100 to 500 | –
10 | Cc1nc(C(=O)NC(C)c2ccc(C(=O)NO)cc2)cs1 (centres unmarked) [Compound I-278, N-(1-{4-[(hydroxyamino)carbonyl]phenyl}ethyl)-2-methyl-1,3-thiazole-4-carboxamide] | – | < 100 | –
11 | CC(NC(=O)C1(C)CC1)c1ccc(C(=O)NO)cc1 (centres unmarked) [Compound I-154, N-hydroxy-4-(1-{[(1-methylcyclopropyl)carbonyl]amino}ethyl)benzamide] | – | < 100 | –
12 | CC(C)[C@@H](NC(=O)c1cc2ccccc2[nH]1)c1ccc(C(=O)NO)cc1 [Compound I-68, N-((1R)-1-{4-[(hydroxyamino)carbonyl]phenyl}-2-methylpropyl)-1H-indole-2-carboxamide] | – | < 100 | –
13 | CC(NC(=O)C1C(C)(C)C1(C)C)c1ccc(C(=O)NO)cc1 (centres unmarked) [Compound I-372, N-hydroxy-4-(1-{[(2,2,3,3-tetramethylcyclopropyl)carbonyl]amino}ethyl)benzamide] | – | 100 to 500 | –
14 | CCC[C@@H](NC(=O)c1oc2ccccc2c1C)c1ccc(C(=O)NO)cc1 [Compound I-367, N-((1R)-1-{4-[(hydroxyamino)carbonyl]phenyl}butyl)-3-methyl-1-benzofuran-2-carboxamide] | – | < 100 | –
15 | CC(C)C(NC(=O)c1ccc2occc2c1)c1ccc(C(=O)NO)cc1 (centres unmarked) [Compound I-194, N-(1-{4-[(hydroxyamino)carbonyl]phenyl}-2-methylpropyl)-1-benzofuran-5-carboxamide] | – | < 100 | –
16 | CCC[C@@H](NC(=O)c1cc2ccccc2o1)c1ccc(C(=O)NO)cc1 [Compound I-79, N-((1R)-1-{4-[(hydroxyamino)carbonyl]phenyl}butyl)-1-benzofuran-2-carboxamide] | – | < 100 | –

Row | SMILES | IC50 (bin: greater than 1 μM) [nM] | IC50 [1] [nM] | other results
17 | CC(NC(=O)c1cc2ccccc2s1)c1cccc(C(=O)NO)c1 (centres unmarked) [Compound I-97, N-(1-{3-[(hydroxyamino)carbonyl]phenyl}ethyl)-1-benzothiophene-2-carboxamide] | – | 100 to 500 | –
18 | CC(NC(=O)c1cc2oc(-c3ccc(C(C)(C)C)cc3)cc2n1C)c1cccc(C(=O)NO)c1 (centres unmarked) [Compound I-324, 2-(4-tert-butylphenyl)-N-(1-{3-[(hydroxyamino)carbonyl]phenyl}ethyl)-4-methyl-4H-furo[3,2-b]pyrrole-5-carboxamide] | > 1000 | – | –
19 | CC(NC(=O)c1cc(Cl)c(Cl)n1C)c1cccc(C(=O)NO)c1 (centres unmarked) [Compound I-39, 4,5-dichloro-N-(1-{3-[(hydroxyamino)carbonyl]phenyl}ethyl)-1-methyl-1H-pyrrole-2-carboxamide] | > 1000 | – | –
20 | CC(C)C(NC(=O)Cc1cc(C(F)(F)F)cc(C(F)(F)F)c1)c1ccc(C(=O)NO)cc1 (centres unmarked) [Compound I-250, 4-[1-({[3,5-bis(trifluoromethyl)phenyl]acetyl}amino)-2-methylpropyl]-N-hydroxybenzamide] | > 1000 | – | –
21 | COc1ccc(C(=O)N[C@@H](c2ccc(C(=O)NO)cc2)C(F)(F)F)cc1 [Compound I-122, 4-methoxy-N-((1S)-2,2,2-trifluoro-1-{4-[(hydroxyamino)carbonyl]phenyl}ethyl)benzamide] | – | < 100 | –
22 | CC(NC(=O)c1ccc2c(c1)OCO2)c1ccc(C(=O)NO)cc1 (centres unmarked) [Compound I-297, N-(1-{4-[(hydroxyamino)carbonyl]phenyl}ethyl)-1,3-benzodioxole-5-carboxamide] | – | < 100 | –
23 | CC(C)(C)C(NC(=O)c1cc(C(F)(F)F)cc(C(F)(F)F)c1)c1ccc(C(=O)NO)cc1 (centres unmarked) [Compound I-52, N-(1-{4-[(hydroxyamino)carbonyl]phenyl}-2,2-dimethylpropyl)-3,5-bis(trifluoromethyl)benzamide] | – | – | IC50 [2]: 500 to 1000 nM
24 | CC(C)C(NC(=O)c1ccc(-c2ccccc2)cc1)c1cccc(C(=O)NO)c1 (centres unmarked) [Compound I-323, N-(1-{3-[(hydroxyamino)carbonyl]phenyl}-2-methylpropyl)biphenyl-4-carboxamide] | > 1000 | – | –
25 | CC(NC(=O)Cc1ccc(F)cc1F)c1ccc(C(=O)NO)cc1 (centres unmarked) [Compound I-402, 4-(1-{[(2,4-difluorophenyl)acetyl]amino}ethyl)-N-hydroxybenzamide] | > 1000 | – | –
26 | CC(C)[C@@H](Nc1nc(-c2cc(-c3ccccc3)no2)cs1)c1ccc(C(=O)NO)cc1 [Compound I-519, N-hydroxy-4-((1R)-2-methyl-1-{[4-(3-phenylisoxazol-5-yl)-1,3-thiazol-2-yl]amino}propyl)benzamide] | – | < 100 | –
27 | Cc1noc(C)c1C(=O)NC(C)c1ccc(C(=O)NO)cc1 (centres unmarked) [Compound I-326, N-(1-{4-[(hydroxyamino)carbonyl]phenyl}ethyl)-3,5-dimethylisoxazole-4-carboxamide] | > 1000 | – | –
28 | Cn1nc(C(C)(C)C)cc1C(=O)NC(c1ccc(C(=O)NO)cc1)C(C)(C)C (centres unmarked) [Compound I-291, 3-tert-butyl-N-(1-{4-[(hydroxyamino)carbonyl]phenyl}-2,2-dimethylpropyl)-1-methyl-1H-pyrazole-5-carboxamide] | – | 100 to 500 | –
29 | CC(NC(=O)c1cnccn1)c1cccc(C(=O)NO)c1 (centres unmarked) [Compound I-165, N-(1-{3-[(hydroxyamino)carbonyl]phenyl}ethyl)pyrazine-2-carboxamide] | > 1000 | – | –
30 | C[C@@H](NC(=O)c1ccc(-c2ccccc2)cc1)c1cccc(C(=O)NO)c1 [Compound I-121, N-((1R)-1-{3-[(hydroxyamino)carbonyl]phenyl}ethyl)biphenyl-4-carboxamide] | – | 100 to 500 | –
31 | CCC[C@@H](NC(=O)c1cc2ccccc2s1)c1ccc(C(=O)NO)cc1 [Compound I-299, N-((1R)-1-{4-[(hydroxyamino)carbonyl]phenyl}butyl)-1-benzothiophene-2-carboxamide] | – | < 100 | –
32 | C[C@@H](NC(=O)C1(C)CCNCC1)c1ccc(C(=O)NO)cc1 [Compound I-487, N-((1R)-1-{4-[(hydroxyamino)carbonyl]phenyl}ethyl)-4-methylpiperidine-4-carboxamide] | – | 100 to 500 | –
